# Reference: publication PMC3891821, “Discovery of Bile Salt Hydrolase Inhibitors Using an Efficient High-Throughput Screening System” (PLoS ONE, 2014)
# Structures can show the parent of a compound that is named as a salt.
# Assays:
# Type in all cases: biochemical
# [1] = target: T1, rBSH (recombinant bile salt hydrolase) (Ligilactobacillus salivarius, UniProt J7H3P9); assay: two-step BSH assay, amino acid released from glycocholate
# T1 construct: His-tagged full-length BSH, E. coli host, Ni-NTA purified
# T1 sequence (J7H3P9 2-324): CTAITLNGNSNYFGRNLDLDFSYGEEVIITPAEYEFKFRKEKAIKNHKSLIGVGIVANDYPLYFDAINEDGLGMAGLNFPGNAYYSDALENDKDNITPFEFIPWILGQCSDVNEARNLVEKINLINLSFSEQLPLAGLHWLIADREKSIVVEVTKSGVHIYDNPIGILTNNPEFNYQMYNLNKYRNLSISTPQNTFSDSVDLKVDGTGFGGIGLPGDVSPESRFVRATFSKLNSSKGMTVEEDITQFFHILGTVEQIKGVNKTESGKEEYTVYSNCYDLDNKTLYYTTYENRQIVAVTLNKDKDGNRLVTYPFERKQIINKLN
# Description: two-step BSH assay, amino acid released from glycocholate on rBSH (recombinant bile salt hydrolase)
# [2] = target: T1, rBSH (recombinant bile salt hydrolase); assay: two-step assay, amino acid release; conditions: 37 C
# [3] = target: T1, rBSH (recombinant bile salt hydrolase); assay: microplate precipitation assay, A600; conditions: pH 6.0, 37 C, DTT
inhibition at 5000 µM [1],Structure (SMILES),other results
99.7%,O=C(/C=C/c1ccc(O)c(O)c1)OCCc1ccccc1 [Caffeic Acid Phenethyl Ester],
61.8%,CC1=C(C(=O)O)N2C(=O)[C@@H](NC(=O)[C@H](N)C3=CCC=CC3)[C@H]2SC1 [Cephradine],
61.2%,Cc1onc(-c2ccccc2Cl)c1C(=O)N[C@@H]1C(=O)N2[C@@H]1SC(C)(C)[C@@H]2C(=O)O [Cloxacillin],
92%,CN(C)[C@@H]1C(O)=C(C(N)=O)C(=O)[C@@]2(O)C(O)=C3C(=O)c4c(O)ccc(Cl)c4[C@@H](O)[C@H]3C[C@@H]12 [Demeclocycline Hydrochloride],
92.9%,C[C@H]1c2cccc(O)c2C(O)=C2C(=O)[C@]3(O)C(O)=C(C(N)=O)C(=O)[C@@H](N(C)C)[C@@H]3[C@@H](O)[C@@H]21 [Doxycycline Hydrochloride],
98.6%,O=C(O[C@@H]1Cc2c(O)cc(O)cc2O[C@@H]1c1ccc(O)c(O)c1)c1cc(O)c(O)c(O)c1 [Epicatechin monogallate],
67.3%,CCC[C@@H]1C[C@@H](C(=O)N[C@@H]([C@H]2O[C@H](SC)[C@H](O)[C@@H](O)[C@H]2O)[C@@H](C)O)N(C)C1 [Lincomycin],
87.2%,CC1=CC(=O)c2ccccc2C1=O [Menadione],
90.2%,C=C1c2cccc(O)c2C(=O)C2=C(O)[C@]3(O)C(=O)C(C(N)=O)=C(O)[C@@H](N(C)C)[C@@H]3[C@@H](O)[C@H]12 [Methacycline Hydrochloride],
83%,O=c1c(O)cccc2cc(O)c(O)c(O)c12 [Purpurogallin],
,Cc1cc2nc3c(=O)[nH]c(=O)nc-3n(C[C@H](O)[C@H](O)[C@H](O)CO)c2cc1C [Riboflavin],inhibition at 1000 µM [1]: 99.3%
,O=[N+]([O-])c1cc([As](=O)(O)O)ccc1O [Roxarsone],"% Inhibition ([1]; 5000 µM, sodium glycocholate, 30 min preincubation, 37 C): 98.4%"
48.7%,Cc1cc(C)nc(NS(=O)(=O)c2ccc(N)cc2)n1 [Sulfamethazine],
,C[C@H](CCC(=O)NCC(=O)O)[C@H]1CC[C@H]2[C@@H]3[C@H](O)C[C@@H]4C[C@H](O)CC[C@]4(C)[C@H]3C[C@H](O)[C@]12C [sodium glycocholate],"two-step assay, amino acid release [2]: ascertain the amount of liberated amino acids from sodium glycocholate"
,C[C@H](CCC(=O)NCCS(=O)(=O)O)[C@H]1CC[C@H]2[C@@H]3CC[C@@H]4C[C@H](O)CC[C@]4(C)[C@H]3C[C@H](O)[C@]12C [taurodeoxycholic acid],"microplate precipitation assay, A600 [3]: taurodeoxycholic acid was better than other tested conjugated bile salts"

Structure (SMILES),inhibition at 5000 µM [1],other results
CC(C)c1cc2c(c(O)c1O)[C@@]1(C(=O)O)CCCC(C)(C)[C@@H]1CC2 [Carnosic Acid],96.8%,
CC[C@H]1OC(=O)[C@H](C)[C@@H](O[C@H]2C[C@@](C)(OC)[C@@H](O)[C@H](C)O2)[C@H](C)[C@@H](O[C@@H]2O[C@H](C)C[C@H](N(C)C)[C@H]2O)[C@](C)(O)C[C@@H](C)C(=O)[C@H](C)[C@@H](O)[C@]1(C)O [Erythromycin],36.5%,
O=c1c(O)c(-c2ccc(O)c(O)c2)oc2c(O)c(O)cc(O)c12 [Gossypetin],97.3%,
CN(C)[C@@H]1C(=O)C(C(N)=O)=C(O)[C@@]2(O)C(=O)C3=C(O)c4c(O)cccc4[C@@](C)(O)[C@H]3[C@H](O)[C@@H]12 [Oxytetracycline],97.4%,
CC[C@H]1OC(=O)C[C@@H](O)[C@H](C)[C@@H](O[C@@H]2O[C@H](C)[C@@H](O[C@H]3C[C@@](C)(O)[C@@H](O)[C@H](C)O3)[C@H](N(C)C)[C@H]2O)[C@@H](CC=O)C[C@@H](C)C(=O)/C=C/C(C)=C/[C@@H]1CO[C@@H]1O[C@H](C)[C@@H](O)[C@@H](OC)[C@H]1OC [Tylosin],23.8%,
